Experimental data taken from ChEMBL document CHEMBL3734705, “Synthesis and in vitro cytotoxicity of novel C-12 substituted-14-deoxy-andrographolide derivatives as potent anti-cancer agents” (2015).
Active and inactive are the calls of the source. The calls are words filed in the database; no cut-off is given here.

What was measured:
Type in all cases: functional
[1] = (§1) Cytotoxicity against human OVCAR5 cells assessed as growth inhibition at 10 uM after 48 hrs by SRB assay; conditions: OVCAR-5, 48 h, read-out: GI
[2] = Cytotoxicity against human RPMI8226 cells after 48 hrs by SRB assay; conditions: RPMI-8226, 48 h
SR = assay: Cytotoxicity against human SR cells after 48 hrs by SRB assay
A549 = assay: Cytotoxicity against human A549 cells after 48 hrs by SRB assay; conditions: A549, 48 h
[3] = Cytotoxicity against human HOP62 cells after 48 hrs by SRB assay; conditions: HOP-62, 48 h
[4] = Cytotoxicity against human HOP92 cells after 48 hrs by SRB assay; conditions: HOP-92, 48 h
NCI-H226 = assay: Cytotoxicity against human NCI-H226 cells after 48 hrs by SRB assay; conditions: NCI-H226, 48 h
NCI-H322M = assay: Cytotoxicity against human NCI-H322M cells after 48 hrs by SRB assay
NCI-H522 = assay: Cytotoxicity against human NCI-H522 cells after 48 hrs by SRB assay; conditions: NCI-H522, 48 h
[5] = Cytotoxicity against human COLO205 cells after 48 hrs by SRB assay; conditions: COLO 205, 48 h
[6] = Cytotoxicity against human HCT116 cells after 48 hrs by SRB assay; conditions: HCT-116, 48 h
HT-29 = assay: Cytotoxicity against human HT-29 cells after 48 hrs by SRB assay; conditions: HT-29, 48 h
[7] = Cytotoxicity against human SF268 cells after 48 hrs by SRB assay; conditions: SF-268, 48 h
[8] = Cytotoxicity against human SNB19 cells after 48 hrs by SRB assay; conditions: SNB-19, 48 h
[9] = Cytotoxicity against human SNB75 cells after 48 hrs by SRB assay; conditions: SNB-75, 48 h
[10] = Cytotoxicity against human LOXIMVI cells after 48 hrs by SRB assay; conditions: LOX IMVI
MDA-MB-435 = assay: Cytotoxicity against human MDA-MB-435 cells after 48 hrs by SRB assay; conditions: MDA-MB-435, 48 h
SK-MEL-2 [11] = assay: Cytotoxicity against human SK-MEL-2 cells after 48 hrs by SRB assay; conditions: SK-MEL-2, 48 h
SK-MEL-28 = assay: Cytotoxicity against human SK-MEL-28 cells after 48 hrs by SRB assay; conditions: SK-MEL-28, 48 h
SK-MEL-5 = assay: Cytotoxicity against human SK-MEL-5 cells after 48 hrs by SRB assay; conditions: SK-MEL-5, 48 h
[12] = Cytotoxicity against human UACC257 cells after 48 hrs by SRB assay; conditions: UACC-257, 48 h
[13] = Cytotoxicity against human UACC62 cells after 48 hrs by SRB assay; conditions: UACC-62, 48 h
[14] = Cytotoxicity against human OVCAR3 cells after 48 hrs by SRB assay; conditions: OVCAR-3, 48 h
[15] = Cytotoxicity against human OVCAR4 cells after 48 hrs by SRB assay; conditions: OVCAR-4, 48 h
[16] = Cytotoxicity against human NCI-ADR-RES cells after 48 hrs by SRB assay
A498 = assay: Cytotoxicity against human A498 cells after 48 hrs by SRB assay; conditions: A498, 48 h
[17] = Cytotoxicity against human RXF393 cells after 48 hrs by SRB assay; conditions: RXF 393, 48 h
[18] = Cytotoxicity against human TK10 cells after 48 hrs by SRB assay; conditions: TK-10, 48 h
[19] = Cytotoxicity against human UO31 cells after 48 hrs by SRB assay; conditions: UO-31, 48 h
[20] = Cytotoxicity against human Hs578T cells after 48 hrs by SRB assay; conditions: Hs-578T
[21] = Cytotoxicity against human BT549 cells after 48 hrs by SRB assay; conditions: BT-549, 48 h
T47D = assay: Cytotoxicity against human T47D cells after 48 hrs by SRB assay
MDA-MB-468 = assay: Cytotoxicity against human MDA-MB-468 cells after 48 hrs by SRB assay; conditions: MDA-MB-468, 48 h
OVCAR-5 = assay: as §1
SK-MEL-2 [22] = assay: Cytotoxicity against human SK-MEL-2 cells assessed as growth level at 10 uM after 48 hrs by SRB assay
SK-MEL-2 [23] = assay: Cytotoxicity against human SK-MEL-2 cells assessed as growth inhibition at 10 uM after 48 hrs by SRB assay; conditions: SK-MEL-2, 48 h, read-out: GI
[24] = read-out: LC50 (the source's name)

C=C1CC[C@@H]2[C@](C)(COC(C)=O)[C@H](OC(C)=O)CC[C@@]2(C)[C@@H]1C/C=C1/C(=O)OC[C@H]1OC(C)=O
inhibition of growth at 10 µM [1]: 46.3% | GI50 [2]: 2.07 µM | LC50 [2]: > 100 µM | TGI [2]: 7.68 µM | GI50 (SR): 2.59 µM | TGI (SR): 10.1 µM | CC50 (SR; [24]): > 100 µM | GI50 (A549): 11.9 µM | LC50 (A549): 79.3 µM | TGI (A549): 30.7 µM | GI50 [3]: 4.4 µM | LC50 [3]: > 100 µM | TGI [3]: 21.3 µM | GI50 [4]: 13.2 µM | LC50 [4]: 52.7 µM | TGI [4]: 26.4 µM | GI50 (NCI-H226): 2.14 µM | LC50 (NCI-H226): 19.9 µM | TGI (NCI-H226): 5.42 µM | GI50 (NCI-H322M): 16 µM | LC50 (NCI-H322M): 55.3 µM | TGI (NCI-H322M): 29.7 µM | GI50 (NCI-H522): 1.52 µM | LC50 (NCI-H522): 8.67 µM | TGI (NCI-H522): 3.63 µM | GI50 [5]: 3.37 µM | LC50 [5]: > 100 µM | TGI [5]: 11.4 µM | GI50 [6]: 1.45 µM | LC50 (concentration killing 50% of cells) [6]: 6.15 µM | TGI [6]: 2.98 µM | GI50 (HT-29): 2.58 µM | LC50 (HT-29): > 100 µM | GI50 [7]: 8.56 µM | LC50 [7]: 55.5 µM | TGI [7]: 22.7 µM | GI50 [8]: 10.8 µM | LC50 (concentration killing 50% of cells) [8]: 55.6 µM | TGI [8]: 24.5 µM | GI50 [9]: 2.83 µM | TGI [9]: 14.2 µM | CC50 [9, 24]: 37.6 µM | GI50 [10]: 1.42 µM | LC50 [10]: 5.73 µM | TGI [10]: 2.85 µM | GI50 (MDA-MB-435): 2.63 µM | LC50 (50% lethal concentration) (MDA-MB-435): 32.2 µM | TGI (MDA-MB-435): 10.1 µM | GI50 (SK-MEL-2 [11]): 10.7 µM | LC50 (concentration causing 50% net cell kill) (SK-MEL-2 [11]): 64.3 µM | TGI (SK-MEL-2 [11]): 26.3 µM | GI50 (SK-MEL-28): 1.75 µM | LC50 (lethal concentration 50%) (SK-MEL-28): 6.51 µM | TGI (SK-MEL-28): 3.38 µM | GI50 (SK-MEL-5): 9.5 µM | LC50 (concentration killing 50% of cells) (SK-MEL-5): 51 µM | TGI (SK-MEL-5): 22.4 µM | GI50 [12]: 6.2 µM | LC50 (concentration killing 50% of cells) [12]: 53.2 µM | TGI [12]: 19.9 µM | GI50 [13]: 3.37 µM | LC50 [13]: 40.7 µM | TGI [13]: 13.5 µM | GI50 [14]: 2.17 µM | LC50 (concentration killing 50% of cells) [14]: 8.15 µM | TGI [14]: 4.21 µM | GI50 [15]: 3.57 µM | TGI [15]: 15.4 µM | CC50 [15, 24]: 41.8 µM | GI50 [16]: 4.22 µM | LC50 [16]: > 100 µM | TGI [16]: 19.8 µM | GI50 (A498): 14.4 µM | TGI (A498): 27.5 µM | CC50 (A498; [24]): 52.6 µM | GI50 [17]: 1.95 µM | LC50 (concentration causing 50% net cell kill) [17]: 8.75 µM | TGI [17]: 4.13 µM | GI50 [18]: 3.81 µM | LC50 [18]: 38.2 µM | TGI [18]: 13.3 µM | GI50 [19]: 1.91 µM | LC50 (concentration killing 50% of cells) [19]: 7.92 µM | TGI [19]: 3.89 µM | GI50 [20]: 12.3 µM | LC50 (concentration killing 50% of cells) [20]: > 100 µM | TGI [20]: 55.4 µM | GI50 [21]: 2.29 µM | TGI [21]: 5.63 µM | CC50 [21, 24]: 18.8 µM | GI50 (T47D): 2.86 µM | LC50 (concentration killing 50% of cells) (T47D): > 100 µM | TGI (T47D): 13.8 µM | GI50 (MDA-MB-468): 2.04 µM | LC50 (MDA-MB-468): 74.4 µM | TGI (MDA-MB-468): 5.69 µM

C=C1CC[C@@H]2[C@](C)(COC(C)=O)[C@H](OC(C)=O)CC[C@@]2(C)[C@@H]1CC(NCc1ccccc1)C1=CCOC1=O (mixture of isomers)
growth inhibition (GI) (OVCAR-5): inactive

C=C1CC[C@@H]2[C@](C)(COC(C)=O)[C@H](OC(C)=O)CC[C@@]2(C)[C@@H]1CC(NC1CCCC1)C1=CCOC1=O (some centres not stated)
Activity (SK-MEL-2 [22]): 85.11% | inhibition of growth at 10 µM (SK-MEL-2 [23]): 14.9% | growth inhibition (GI) (OVCAR-5): inactive

C=C1CC[C@@H]2[C@](C)(COC(C)=O)[C@H](OC(C)=O)CC[C@@]2(C)[C@@H]1CC(NCc1cccc(Cl)c1)C1=CCOC1=O (mixture of isomers)
Activity (SK-MEL-2 [22]): 68.04% | inhibition of growth at 10 µM (SK-MEL-2 [23]): 32% | inhibition of growth at 10 µM [1]: 0.31%

C=C1CC[C@@H]2[C@](C)(COC(C)=O)[C@H](OC(C)=O)CC[C@@]2(C)[C@@H]1CC(NCc1ccc(F)cc1)C1=CCOC1=O (mixture of isomers)
Activity (SK-MEL-2 [22]): 73.2% | inhibition of growth at 10 µM (SK-MEL-2 [23]): 26.8% | inhibition of growth at 10 µM [1]: 1%

C=C1CC[C@@H]2[C@](C)(CO)[C@H](O)CC[C@@]2(C)[C@@H]1C/C=C1/C(=O)OC[C@H]1O [ANDROGRAPHOLIDE]
growth inhibition (GI) (OVCAR-5): inactive
